According to US10513559B2, “Amatoxin-armed therapeutic cell surface binding components designed for tumour therapy” (Deutsches Krebsforschungszentrum, priority 2009, dated 2019):
pIC50: −log10 of the molar value.

Legend:
[1] = tested on: MCF-7 breast cancer cells; assay: binding of conjugates to MCF-7 cells by flow cytometry; set-up: species or system human; settings: 1 μg/ml, 1 h on ice; FITC-labeled secondary antibody; identical antibody amounts
Procedure: The abbreviation FL1-H stands for “fluorescence 1 height” which means the intensity of fluorescence 1, i.e. the green channel for FITC.
Binding of huHEA125-amanitin and huHEA125-phalloidin conjugates versus non-conjugated huHEA125 antibody was analyzed by flow cytometry. MCF-7 target cells were washed twice in FACS buffer (Dulbecco's PBS with 1% heat-inactivated fetal calf serum and 0.1% sodium azide) counted and adjusted to 2×10^7 cells per ml. Fifty μl of cell suspension was given to each well of a 96 well U-bottom microtiter plate. Immunotoxins huHEA125-amanitin1, huHEA125-amanitin4 and huHEA125-phalloidin as well as unconjugated huHEA125 antibody were added at a concentration of 1 μg/ml in a volume of 100 μl per well and incubated for 1 h on ice. The plate was centrifuged (2 min at 2000 rpm) and the supernatant was removed from the cells. Cells were re-suspended in 150 μl of FACS buffer and centrifuged again. Subsequently, 100 μl of FITC-labeled F(ab′)2 goat anti-human IgG (H+L) secondary antibody was added per well and incubated again for 1 h on ice. After two washing steps by centrifugation, cells were taken up in 100 μl/well of propidium iodide solution (1 μg/ml in FACS buffer) allowing discrimination of dead cells. Analysis was performed on a FACScan cytometer (Becton and Dickinson, Heidelberg, Germany) using CellQuest software.

MCF-7 cells = assay: proliferation assay, [3H]-thymidine incorporation, MCF-7; type: cell-based, human; settings: 72 or 96 h, amanitin concentration, read-out: IC50 of inhibition of cell proliferation
Procedure: Inhibition of cell growth by amanitin-IgG conjugates was determined by incorporation of [^3H]-thymidine. Serial dilutions of amanitin-huHEA125 and amanitin in complete medium (RPMI 1640 supplemented with 10% heat-inactivated FCS, 2 mM L-glutamine and 1 mM sodium pyruvate) ranging from 2×10^−5 M to 6×10^−13 M were prepared in triplicates in a volume of 100 μl in the wells of a 96 well flat-bottom tissue culture microtiter plate. […] Plates were incubated in a humidified atmosphere at 37° C. and 5% CO2 for 72 or 96 h. At 20 h before the end of the assay, 1 μCi of [^3H]-thymidine was added. Subsequently, plates were processed with a Tomtec cell harvester and the incorporated radioactivity was determined by liquid scintillation counting (Wallac Betaplate Liquid Scintillation Counter, PerkinElmer Life and Analytical Sciences) and given as cpm.
Three examples of growth inhibition induced by different amanitin-IgG conjugates are depicted in FIGS. 5, 6, and 9. In all three experiments MCF-7 cells were used. […] In the experiment outlined in FIG. 6 huHEA125-Amanitin4 was compared with an alpha-phalloidin huHEA125 conjugate and with free Amanitin.

Substance	mean fluorescence intensity (MFI) [1]	pIC50 (MCF-7 cells)
huHEA125: chimeric anti-EpCAM antibody: mouse HEA125 variable domains, human kappa light and IgG1 heavy constant chains (SEQ ID NO: 1/2, 11)	1094	–
Amanitin [reference compound]	–	~7.00
α-Amanitin-glutarate-huHEA125 [huHEA125-Amanitin3]	–	~11.70
